US20100285957A1, “THIAZOLYLOXYPHENYLAMIDINES OR THIADIAZOLYLOXYPHENYLAMIDINES AND THEIR USE AS FUNGICIDES” (Bayer CropScience AG, priority 2007, published 2010)
Like-named read-outs stand apart in the source and are kept apart here.

Tests used:
Sphaerotheca fuliginea = experiment: Sphaerotheca test (cucumber)/protective; format: in vivo; settings: Podosphaera fuliginea, 168 h, 100 ppm active substance, protective, evaluation 7 days after inoculation, read-out: degree of effectiveness
Method: Sphaerotheca Test (Cucumber)/Protective [table] To prepare a suitable active substance composition, 1 part by weight of active substance is mixed with the given amounts of solvents and emulsifier and the concentrate is diluted to the desired concentration using water. For the testing of protective effectiveness, young plants are sprayed with the active substance composition in the application rate given. After the spray coating has been dried on, the plants are inoculated with an aqueous suspension of spores of Sphaerotheca fuliginea. The plants are then placed in a greenhouse at approximately 23° C. and a relative humidity of approximately 70%. Evaluation is carried out 7 days after the inoculation. In this connection, 0% means a degree of effectiveness corresponding to that of the control, while a degree of effectiveness of 100% means that no infestation is observed.

Uromyces appendiculatus = experiment: Uromyces test (beans)/protective; format: in vivo; settings: 240 h, 100 ppm active substance, protective, evaluation 10 days after inoculation, read-out: degree of effectiveness
Method: Uromyces Test (Beans)/Protective [table] To prepare a suitable active substance composition, 1 part by weight of active substance is mixed with the given amounts of solvents and emulsifier and the concentrate is diluted to the desired concentration using water. For the testing of protective effectiveness, young plants are sprayed with the active substance composition in the application rate given. After the spray coating has been dried on, the plants are inoculated with an aqueous suspension of the spores of the bean rust pathogen Uromyces appendiculatus and then remain in an incubation chamber at approximately 20° C. and 100% relative humidity for 1 day. The plants are then placed in a greenhouse at approximately 21° C. and a relative humidity of approximately 90%. Evaluation is carried out 10 days after the inoculation. In this connection, 0% means a degree of effectiveness corresponding to that of the control, while a degree of effectiveness of 100% means that no infestation is observed.

Phakopsora pachyrhizi = experiment: Phakopsora test (soya)/protective; format: in vivo; settings: 264 h, 100 ppm active substance, protective, evaluation 11 days after inoculation, read-out: degree of effectiveness
Method: Phakopsora Test (Soya)/Protective
(§1) To prepare a suitable active substance composition, 1 part by weight of active substance is mixed with the given amounts of solvent and emulsifier and the concentrate is diluted to the desired concentration using water.
For the testing of protective effectiveness, young plants are sprayed with the active substance composition in the application rate given. After the spray coating has been dried on, the plants are inoculated with an aqueous suspension of the spores of Phakopsora pachyrhizi and then remain in an incubation chamber at approximately 20° C. and 80% relative humidity for 1 day.
Evaluation is carried out 11 days after the inoculation. In this connection, 0% means a degree of effectiveness corresponding to that of the control, while a degree of effectiveness of 100% means that no infestation is observed.

Alternaria solani = experiment: Alternaria test (tomato)/protective; format: in vivo; settings: 168 h, 500 ppm active substance, protective, evaluation 7 days after inoculation, read-out: degree of effectiveness
Method: Alternaria Test (Tomato)/Protective [table] To prepare a suitable active substance composition, 1 part by weight of active substance is mixed with the given amounts of solvent and emulsifier and the concentrate is diluted to the desired concentration using water. For the testing of protective effectiveness, young tomato plants are sprayed with the active substance composition in the application rate given. 1 day after the treatment, the plants are inoculated with a suspension of the spores of Alternaria solani and then stand at 100% relative humidity and 20° C. for 24 h. Subsequently, the plants stand at 96% relative humidity and a temperature of 20° C. Evaluation is carried out 7 days after the inoculation. In this connection, 0% means a degree of effectiveness corresponding to that of the control, while a degree of effectiveness of 100% means that no infestation is observed.

Pyrenophora teres = Pyrenophora teres test (barley)/protective; format: in vivo; settings: 500 ppm active substance, protective, evaluation 7-9 days after inoculation, read-out: degree of effectiveness
Method: Pyrenophora teres Test (Barley)/Protective
as §1
For the testing of protective effectiveness, young barley plants are sprayed with the active substance composition in the application rate given. 1 day after the treatment, the plants are inoculated with an aqueous suspension of the spores of Pyrenophora teres and then remain at 100% relative humidity and 20° C. for 48 h. Subsequently, the plants are placed in a greenhouse at 80% relative humidity and a temperature of 20° C.
Evaluation is carried out 7-9 days after the inoculation. In this connection, 0% means a degree of effectiveness corresponding to that of the control, while a degree of effectiveness of 100% means that no infestation is observed.

[1] = system: Blumeria graminis f.sp. hordei; experiment: Blumeria graminis test (barley)/protective; format: in vivo; settings: 168 h, 1000 ppm active substance, protective, evaluation 7 days after inoculation, read-out: degree of effectiveness
Method: Blumeria graminis Test (Barley)/Protective
as §1
For the testing of protective effectiveness, young plants are sprayed with the active substance composition in the application rate given.
After the spray coating has been dried on, the plants are dusted with spores of Blumeria graminis f.sp. hordei.
The plants are placed in a greenhouse at a temperature of approximately 20° C. and a relative humidity of approximately 80%, in order to encourage the development of mildew pustules.
Evaluation is carried out 7 days after the inoculation. In this connection, 0% means a degree of effectiveness corresponding to that of the control, while a degree of effectiveness of 100% means that no infestation is observed.

[2] = system: Puccinia recondita var. tritici; experiment: Puccinia test (wheat)/protective; format: in vivo; settings: 240 h, 1000 ppm active substance, protective, evaluation 10 days after inoculation, read-out: degree of effectiveness
Method: Puccinia Test (Wheat)/Protective
as §1
For the testing of protective effectiveness, young plants are sprayed with the active substance composition in the application rate given. After the spray coating has been dried on, the plants are sprayed with a suspension of the conidia of Puccinia recondita var. tritici. The plants remain in an incubation chamber at 20° C. and 100% relative humidity for 48 hours.
The plants are then placed in a greenhouse at a temperature of approximately 20° C. and a relative humidity of 80%, in order to encourage the development of rust pustules.
Evaluation is carried out 10 days after the inoculation. In this connection, 0% means a degree of effectiveness corresponding to that of the control, while a degree of effectiveness of 100% means that no infestation is observed.

SMILES | pest or weed control at 100 ppm (Sphaerotheca fuliginea) [%] | pest or weed control at 100 ppm (Uromyces appendiculatus) [%] | pest or weed control at 100 ppm (Phakopsora pachyrhizi) [%] | pest or weed control at 500 ppm (Alternaria solani) [%] | pest or weed control at 500 ppm (Pyrenophora teres) [%] | pest or weed control at 1000 ppm [1] [%] | pest or weed control at 1000 ppm [2] [%] | logP (physchem; pH 2.3) | logP (physchem)
CCN(C)C=Nc1cc(C)c(Oc2nc(C3CC3)ns2)cc1C [Compound 1, N′-{4-[(3-Cyclopropyl-1,2,4-thiadiazol-5-yl)oxy]-2,5-dimethylphenyl}-N-ethyl-N-methylimidoformamide] | ≥ 70 | ≥ 70 | ≥ 80 | ≥ 70 | ≥ 70 | ≥ 70 | ≥ 70 | 1.59 | 
Cc1cc(Oc2nc(C3CC3)ns2)c(C)cc1N=CN(C)C(C)C [Compound 2, N′-{4-[(3-Cyclopropyl-1,2,4-thiadiazol-5-yl)oxy]-2,5-dimethylphenyl}-N-methyl-N-(1-methyl-ethyl)imidoformamide] | ≥ 70 | ≥ 70 | ≥ 80 | ≥ 70 | ≥ 70 | ≥ 70 | ≥ 70 | 1.91 | 
CCN(C)C=Nc1cc(C)c(Oc2nc(C3(Cl)CC3)cs2)cc1C [Compound 5, N′-(4-{[4-(1-Chlorocyclopropyl)-1,3-thiazol-2-yl]oxy}-2,5-dimethylphenyl)-N-ethyl-N-methyl-imidoformamide] | ≥ 70 | ≥ 70 | ≥ 80 | ≥ 70 | ≥ 70 | ≥ 70 | ≥ 70 |  | 4.8
CCN(C)C=Nc1cc(C)c(Oc2nc(C3(Cl)CC3)c(Cl)s2)cc1C [Compound 7, N′-(4-{[5-Chloro-4-(1-chlorocyclopropyl)-1,3-thiazol-2-yl]oxy}-2,5-dimethylphenyl)-N-ethyl-N-methylimidoformamide] | ≥ 70 | ≥ 70 | ≥ 80 | ≥ 70 | ≥ 70 | ≥ 70 | ≥ 70 | 1.82 | 
Cc1cc(Oc2nc(C3(Cl)CC3)c(Cl)s2)c(C)cc1/N=C/N1CCCCC1 [Compound 8, 4-{[5-Chloro-4-(1-chlorocyclopropyl)-1,3-thiazol-2-yl]oxy}-2,5-dimethyl-N-[(1E)-piperidin-1-ylmethylidene]aniline] | ≥ 70 | ≥ 70 | ≥ 80 | ≥ 70 | ≥ 70 | ≥ 70 | ≥ 70 | 2.47 | 6.02
Cc1cc(Oc2nc(C3(C)CC3)ns2)c(C)cc1N=CN(C)C(C)C [Compound 10, N′-(2,5-Dimethyl-4-{[3-(1-methylcyclopropyl)-1,2,4-thiadiazol-5-yl]oxy}phenyl)-N-methyl-N-(1-methylethyl)imidoformamide] | ≥ 70 | ≥ 70 | ≥ 80 |  | ≥ 70 | ≥ 70 | ≥ 70 | 2.03 | 
CCN(C)C=Nc1cc(C)c(Oc2nc(C3(Cl)CC3)ns2)cc1C [Compound 12, N′-(4-{[3-(1-Chlorocyclopropyl)-1,2,4-thiadiazol-5-yl]oxy}-2,5-dimethylphenyl)-N-ethyl-N-methylimidoformamide] | ≥ 70 | ≥ 70 | ≥ 80 |  | ≥ 70 | ≥ 70 | ≥ 70 | 1.59 | 
Cc1cc(Oc2nc(C3(Cl)CC3)c(Cl)s2)c(C)cc1N=CN(C)C(C)C [Compound 17, N′-(4-{[5-Chloro-4-(1-chlorocyclopropyl)-1,3-thiazol-2-yl]oxy}-2,5-dimethylphenyl)-N-methyl-N-(1-methylethyl)imidoformamide] | ≥ 70 | ≥ 70 | ≥ 80 |  | ≥ 70 | ≥ 70 | ≥ 70 | 2.22 | 5.86
CCN(C)C=Nc1cc(C)c(Oc2nc(C3(CC)C(C)C3(Cl)Cl)ns2)cc1C (stereo not drawn) [Compound 27, N′-(4-{[3-(2,2-Dichloro-1-ethyl-3-methylcyclopropyl)-1,2,4-thiadiazol-5-yl]oxy}-2,5-dimethylphenyl)-N-ethyl-N-methylimidoformamide] | ≥ 70 | ≥ 70 | ≥ 80 |  | ≥ 70 |  |  | 2.21 | 
CCN(C)C=Nc1cc(C)c(Oc2nc(C3(F)CC3)cs2)cc1C [Compound 29, N-Ethyl-N′-(4-{[4-(1-fluorocyclopropyl)-1,3-thiazol-2-yl]oxy}-2,5-dimethylphenyl)-N-methylimidoformamide] | ≥ 70 | ≥ 70 | ≥ 80 | ≥ 70 | ≥ 70 |  |  | 1.58 | 4.38
CCN(C)C=Nc1cc(C)c(Oc2nc(C3(F)CC3)c(Cl)s2)cc1C [Compound 30, N′-(4-{[5-Chloro-4-(1-fluorocyclopropyl)-1,3-thiazol-2-yl]oxy}-2,5-dimethylphenyl)-N-ethyl-N-methylimidoformamide] | ≥ 70 | ≥ 70 | ≥ 80 |  | ≥ 70 |  |  | 1.92 | 5.08
